Experiments:
Assay in all cases: relative viability (nuclei count vs DMSO), 5 days (fraction); higher = more cells survive
[1] = system: 201T
Outline: (§1)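 Relative viability divides the nuclei count in treated wells by that in vehicle wells. Lung cancer cell lines were seeded in 1536-well plates, dosed by pin tool the next day, and fixed and stained after 5 days in one step with final 0.05% Triton X-100, 1% formaldehyde and 1 ug/ml Hoechst. Dosing was a single drug or a fixed anchor-drug dose plus five library-drug doses (not always all listed) in √10 steps, and values are medians of duplicate plates imaged at 4×.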

[2] = system: ABC-1
Outline: as §1

[3] = system: BEN
Outline: as §1

[4] = system: CAL-12T
Outline: as §1

[5] = system: COR-L 105
Outline: as §1

[6] = system: EKVX
Outline: as §1

[7] = system: HARA
Outline: as §1

[8] = system: HCC-366
Outline: as §1

[9] = system: LK-2
Outline: as §1

[10] = system: LOU-NH91
Outline: as §1

[11] = system: NCI-H1437
Outline: as §1

[12] = system: NCI-H1650
Outline: as §1

[13] = system: NCI-H1666
Outline: as §1

[14] = system: NCI-H2009
Outline: as §1

[15] = system: NCI-H2170
Outline: as §1

[16] = system: NCI-H3122
Outline: as §1

[17] = system: NCI-H441
Outline: as §1

[18] = system: NCI-H460
Outline: as §1

[19] = system: NCI-H661
Outline: as §1

[20] = system: NCI-H727
Outline: as §1

[21] = system: PC-14
Outline: as §1

[22] = system: SW 900
Outline: as §1

For `O=c1cc(N2CCOCC2)oc2c(-c3cccc4c3sc3ccccc34)cccc12` + COc1cc2c(Oc3ccc(NC(=O)C4(C(=O)Nc5ccc(F)cc5)CC4)cc3F)ccnc2cc1OCCCN1CCOCC1 [Foretinib] (partner 0.25 µM), which relative viability ([1]; first compound 0.01 µM) is on record?
The relative viability was 1.1.

And the relative viability ([1]; first compound 0.03162 µM)?
Its relative viability is 1.13.

And the relative viability ([1]; first compound 0.1 µM)?
Its relative viability is 1.1.

And the relative viability ([1]; first compound 0.3162 µM)?
Its relative viability is 0.963.

What about the relative viability ([1]; first compound 1 µM) of the same compound?
Its relative viability is 1.06.

What about the relative viability ([2]; first compound 0.01 µM) of the same compound?
The relative viability was 1.03.

What about the relative viability ([2]; first compound 0.03162 µM) of the same compound?
Its relative viability is 0.943.

What about the relative viability ([2]; first compound 0.1 µM) of the same compound?
Its relative viability is 1.48.

What about the relative viability ([2]; first compound 0.3162 µM) of the same compound?
Its relative viability is 1.11.

And the relative viability ([2]; first compound 1 µM)?
The relative viability was 1.02.

What about the relative viability ([3]; first compound 0.01 µM) of the same compound?
The relative viability was 0.548.

And the relative viability ([3]; first compound 0.03162 µM)?
Its relative viability is 0.861.

What about the relative viability ([3]; first compound 0.1 µM) of the same compound?
The relative viability was 0.57.

And the relative viability ([3]; first compound 0.3162 µM)?
Its relative viability is 0.701.

What about the relative viability ([3]; first compound 1 µM) of the same compound?
The relative viability was 0.578.

And the relative viability ([4]; first compound 0.01 µM)?
Its relative viability is 1.12.

What about the relative viability ([4]; first compound 0.03162 µM) of the same compound?
The relative viability was 0.973.

And the relative viability ([4]; first compound 0.1 µM)?
Its relative viability is 1.14.

What about the relative viability ([4]; first compound 0.3162 µM) of the same compound?
Its relative viability is 1.03.

And the relative viability ([4]; first compound 1 µM)?
The relative viability was 1.11.

And the relative viability ([5]; first compound 0.01 µM)?
Its relative viability is 0.986.

And the relative viability ([5]; first compound 0.03162 µM)?
The relative viability was 1.1.

And the relative viability ([5]; first compound 0.1 µM)?
Its relative viability is 0.681.

And the relative viability ([5]; first compound 0.3162 µM)?
The relative viability was 1.04.

And the relative viability ([5]; first compound 1 µM)?
Its relative viability is 1.21.

What about the relative viability ([6]; first compound 0.01 µM) of the same compound?
Its relative viability is 0.973.

What about the relative viability ([6]; first compound 0.03162 µM) of the same compound?
The relative viability was 1.05.

What about the relative viability ([6]; first compound 0.1 µM) of the same compound?
The relative viability was 0.818.

What about the relative viability ([6]; first compound 0.3162 µM) of the same compound?
The relative viability was 0.628.

What about the relative viability ([6]; first compound 1 µM) of the same compound?
Its relative viability is 0.59.

What about the relative viability ([7]; first compound 0.01 µM) of the same compound?
The relative viability was 0.768.

And the relative viability ([7]; first compound 0.03162 µM)?
The relative viability was 0.897.

What about the relative viability ([7]; first compound 0.1 µM) of the same compound?
The relative viability was 0.857.

And the relative viability ([7]; first compound 0.3162 µM)?
Its relative viability is 0.864.

And the relative viability ([7]; first compound 1 µM)?
Its relative viability is 0.903.

And the relative viability ([8]; first compound 0.01 µM)?
The relative viability was 0.941.

What about the relative viability ([8]; first compound 0.03162 µM) of the same compound?
Its relative viability is 0.918.

What about the relative viability ([8]; first compound 0.1 µM) of the same compound?
The relative viability was 0.99.

What about the relative viability ([8]; first compound 0.3162 µM) of the same compound?
Its relative viability is 0.961.

What about the relative viability ([8]; first compound 1 µM) of the same compound?
The relative viability was 0.853.

What about the relative viability ([9]; first compound 0.01 µM) of the same compound?
Its relative viability is 1.17.

What about the relative viability ([9]; first compound 0.03162 µM) of the same compound?
The relative viability was 1.16.

What about the relative viability ([9]; first compound 0.1 µM) of the same compound?
Its relative viability is 1.53.

What about the relative viability ([9]; first compound 0.3162 µM) of the same compound?
The relative viability was 0.958.

What about the relative viability ([9]; first compound 1 µM) of the same compound?
Its relative viability is 0.951.

What about the relative viability ([10]; first compound 0.01 µM) of the same compound?
The relative viability was 0.869.

And the relative viability ([10]; first compound 0.03162 µM)?
The relative viability was 0.938.

And the relative viability ([10]; first compound 0.1 µM)?
Its relative viability is 1.

And the relative viability ([10]; first compound 0.3162 µM)?
The relative viability was 0.927.

What about the relative viability ([10]; first compound 1 µM) of the same compound?
The relative viability was 0.955.

What about the relative viability ([11]; first compound 0.01 µM) of the same compound?
Its relative viability is 0.877.

What about the relative viability ([11]; first compound 0.03162 µM) of the same compound?
The relative viability was 1.28.

What about the relative viability ([11]; first compound 0.1 µM) of the same compound?
Its relative viability is 1.26.

What about the relative viability ([11]; first compound 0.3162 µM) of the same compound?
The relative viability was 1.25.

What about the relative viability ([11]; first compound 1 µM) of the same compound?
The relative viability was 1.23.

And the relative viability ([12]; first compound 0.01 µM)?
Its relative viability is 1.09.

What about the relative viability ([12]; first compound 0.03162 µM) of the same compound?
The relative viability was 1.09.

And the relative viability ([12]; first compound 0.1 µM)?
Its relative viability is 1.04.

And the relative viability ([12]; first compound 0.3162 µM)?
The relative viability was 1.21.

And the relative viability ([12]; first compound 1 µM)?
The relative viability was 1.19.

And the relative viability ([13]; first compound 0.01 µM)?
Its relative viability is 0.907.

And the relative viability ([13]; first compound 0.03162 µM)?
The relative viability was 0.917.

What about the relative viability ([13]; first compound 0.1 µM) of the same compound?
The relative viability was 0.983.

And the relative viability ([13]; first compound 0.3162 µM)?
The relative viability was 0.883.

And the relative viability ([13]; first compound 1 µM)?
Its relative viability is 0.913.

And the relative viability ([14]; first compound 0.01 µM)?
Its relative viability is 1.19.

And the relative viability ([14]; first compound 0.03162 µM)?
The relative viability was 1.21.

What about the relative viability ([14]; first compound 0.1 µM) of the same compound?
Its relative viability is 1.23.

What about the relative viability ([14]; first compound 0.3162 µM) of the same compound?
The relative viability was 1.22.

And the relative viability ([14]; first compound 1 µM)?
Its relative viability is 1.11.

What about the relative viability ([15]; first compound 0.01 µM) of the same compound?
Its relative viability is 0.968.

What about the relative viability ([15]; first compound 0.03162 µM) of the same compound?
The relative viability was 0.542.

What about the relative viability ([15]; first compound 0.1 µM) of the same compound?
Its relative viability is 1.03.

What about the relative viability ([15]; first compound 0.3162 µM) of the same compound?
The relative viability was 0.935.

And the relative viability ([15]; first compound 1 µM)?
Its relative viability is 0.942.

What about the relative viability ([16]; first compound 0.01 µM) of the same compound?
The relative viability was 0.953.

What about the relative viability ([16]; first compound 0.03162 µM) of the same compound?
The relative viability was 0.918.

What about the relative viability ([16]; first compound 0.1 µM) of the same compound?
The relative viability was 1.

And the relative viability ([16]; first compound 0.3162 µM)?
Its relative viability is 0.932.

And the relative viability ([16]; first compound 1 µM)?
Its relative viability is 0.954.

What about the relative viability ([17]; first compound 0.01 µM) of the same compound?
Its relative viability is 1.17.

And the relative viability ([17]; first compound 0.03162 µM)?
The relative viability was 0.864.

And the relative viability ([17]; first compound 0.1 µM)?
The relative viability was 1.02.

And the relative viability ([17]; first compound 0.3162 µM)?
Its relative viability is 0.992.

And the relative viability ([17]; first compound 1 µM)?
The relative viability was 0.969.

And the relative viability ([18]; first compound 0.01 µM)?
Its relative viability is 0.981.

What about the relative viability ([18]; first compound 0.03162 µM) of the same compound?
The relative viability was 1.03.

And the relative viability ([18]; first compound 0.1 µM)?
Its relative viability is 0.987.

And the relative viability ([18]; first compound 0.3162 µM)?
The relative viability was 0.985.

What about the relative viability ([18]; first compound 1 µM) of the same compound?
The relative viability was 1.04.

What about the relative viability ([19]; first compound 0.01 µM) of the same compound?
Its relative viability is 0.996.

What about the relative viability ([19]; first compound 0.03162 µM) of the same compound?
The relative viability was 1.05.

What about the relative viability ([19]; first compound 0.1 µM) of the same compound?
The relative viability was 1.03.

And the relative viability ([19]; first compound 0.3162 µM)?
Its relative viability is 0.947.

And the relative viability ([19]; first compound 1 µM)?
Its relative viability is 1.03.

And the relative viability ([20]; first compound 0.01 µM)?
Its relative viability is 1.05.

And the relative viability ([20]; first compound 0.03162 µM)?
The relative viability was 0.822.

And the relative viability ([20]; first compound 0.1 µM)?
Its relative viability is 0.908.

And the relative viability ([20]; first compound 0.3162 µM)?
Its relative viability is 1.

What about the relative viability ([20]; first compound 1 µM) of the same compound?
The relative viability was 0.865.

What about the relative viability ([21]; first compound 0.01 µM) of the same compound?
The relative viability was 0.957.

And the relative viability ([21]; first compound 0.03162 µM)?
The relative viability was 0.965.

What about the relative viability ([21]; first compound 0.1 µM) of the same compound?
The relative viability was 0.994.

What about the relative viability ([21]; first compound 0.3162 µM) of the same compound?
The relative viability was 0.987.

And the relative viability ([21]; first compound 1 µM)?
The relative viability was 0.948.

What about the relative viability ([22]; first compound 0.01 µM) of the same compound?
Its relative viability is 0.859.

And the relative viability ([22]; first compound 0.03162 µM)?
The relative viability was 0.888.

And the relative viability ([22]; first compound 0.1 µM)?
The relative viability was 0.789.

And the relative viability ([22]; first compound 0.3162 µM)?
Its relative viability is 0.798.

And the relative viability ([22]; first compound 1 µM)?
Its relative viability is 0.818.

Reference: the supplement of paper PMC10307832
